Data: US20220281831A1, “FUSED-GLUTARIMIDE CRBN LIGANDS AND USES THEREOF” (Kymera Therapeutics, Inc., priority 2019, published 2022)
pIC50: −log10 of the molar value.

How the values were obtained:
CRBN-DDB1 = CRBN-DDB1 (Homo sapiens, UniProt Q96SW2); test: Fluorescence Polarization (FP) CRBN binding assay, probe TM-493 (FAM-BB-100); conditions: CRBN-DDB1, TM-493 probe, 60 min room temperature
Experimental: Fluorescence Polarization (FP) Assay
Materials: PerkinElmer EnVision 2104 Multilabel Reader, PerkinElmer FITC FP dual emission Label 2100-8060, Corning 384-well microplate #4514, V-CMR-TM-493 (FAM-BB-100), and CRBN-DDB1-180605.
Methods: Dilution buffer (50 mM HEPES-Na pH 7.5, 100 mM NaCl, 2 mM DTT, and 0.005% Tween-20) and compound DMSO dilutions were prepared. 4× compound working solutions were made with 8% DMSO (4×) and 13.8 μL/well of dilution buffer was placed in a new 96-well plate and 1.2 μL/well of above compound DMSO dilutions were added to the wells. 40 nM (4×) TM-493 in dilution buffer was prepared from a 10 μM DMSO stock and 15 μL per well of the TM-493 working solution was transferred into the compound working solution. 160 nM (2×) CRBN-DDB1 working solution was prepared with Dilution Buffer and 10 μL/well were added into a 384-well plate. 10 μL per well of the TM-493/compound mixture were transferred into the 384-well plate. The “positive control” was sample without protein and compound in 2% DMSO. After incubation at room temperature for 60 min, data was collected and read on data on an EnVision with the following setting: Excitation Light (%): 100; Measurement Height: 9.4; G-Factor: 1; Detector Gain 1: 200; Detector Gain 2: 200; Flash Number: 100. Data was processed using GraphPad Prism 7.0
The compound numbers correspond to the compound numbers in Table 1.

[1] = biological target: His-tagged CRBN-DDB1 complex (Homo sapiens, UniProt Q96SW2); test: Time-Resolved Fluorescence Resonance Energy Transfer (TR-FRET / HTRF) CRBN binding assay, displacement of Cy5-labeled thalidomide; conditions: His-CRBN-DDB1, Cy5-thalidomide 8 nM, 1 hour room temperature
Sequence of His-tagged CRBN-DDB1 complex (Q96SW2 whole entry): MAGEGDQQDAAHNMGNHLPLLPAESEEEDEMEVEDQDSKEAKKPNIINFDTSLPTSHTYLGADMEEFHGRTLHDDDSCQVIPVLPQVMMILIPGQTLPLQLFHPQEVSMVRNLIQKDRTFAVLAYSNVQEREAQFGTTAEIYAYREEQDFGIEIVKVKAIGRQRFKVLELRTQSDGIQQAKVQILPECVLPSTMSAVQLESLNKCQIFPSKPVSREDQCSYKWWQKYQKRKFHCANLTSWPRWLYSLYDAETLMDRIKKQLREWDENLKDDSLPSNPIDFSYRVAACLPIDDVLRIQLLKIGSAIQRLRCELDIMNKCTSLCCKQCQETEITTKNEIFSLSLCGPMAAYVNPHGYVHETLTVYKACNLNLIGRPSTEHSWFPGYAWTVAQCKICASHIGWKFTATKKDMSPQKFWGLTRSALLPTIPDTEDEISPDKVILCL
Sequence of His-tagged CRBN-DDB1 complex (Q16531 whole entry partner): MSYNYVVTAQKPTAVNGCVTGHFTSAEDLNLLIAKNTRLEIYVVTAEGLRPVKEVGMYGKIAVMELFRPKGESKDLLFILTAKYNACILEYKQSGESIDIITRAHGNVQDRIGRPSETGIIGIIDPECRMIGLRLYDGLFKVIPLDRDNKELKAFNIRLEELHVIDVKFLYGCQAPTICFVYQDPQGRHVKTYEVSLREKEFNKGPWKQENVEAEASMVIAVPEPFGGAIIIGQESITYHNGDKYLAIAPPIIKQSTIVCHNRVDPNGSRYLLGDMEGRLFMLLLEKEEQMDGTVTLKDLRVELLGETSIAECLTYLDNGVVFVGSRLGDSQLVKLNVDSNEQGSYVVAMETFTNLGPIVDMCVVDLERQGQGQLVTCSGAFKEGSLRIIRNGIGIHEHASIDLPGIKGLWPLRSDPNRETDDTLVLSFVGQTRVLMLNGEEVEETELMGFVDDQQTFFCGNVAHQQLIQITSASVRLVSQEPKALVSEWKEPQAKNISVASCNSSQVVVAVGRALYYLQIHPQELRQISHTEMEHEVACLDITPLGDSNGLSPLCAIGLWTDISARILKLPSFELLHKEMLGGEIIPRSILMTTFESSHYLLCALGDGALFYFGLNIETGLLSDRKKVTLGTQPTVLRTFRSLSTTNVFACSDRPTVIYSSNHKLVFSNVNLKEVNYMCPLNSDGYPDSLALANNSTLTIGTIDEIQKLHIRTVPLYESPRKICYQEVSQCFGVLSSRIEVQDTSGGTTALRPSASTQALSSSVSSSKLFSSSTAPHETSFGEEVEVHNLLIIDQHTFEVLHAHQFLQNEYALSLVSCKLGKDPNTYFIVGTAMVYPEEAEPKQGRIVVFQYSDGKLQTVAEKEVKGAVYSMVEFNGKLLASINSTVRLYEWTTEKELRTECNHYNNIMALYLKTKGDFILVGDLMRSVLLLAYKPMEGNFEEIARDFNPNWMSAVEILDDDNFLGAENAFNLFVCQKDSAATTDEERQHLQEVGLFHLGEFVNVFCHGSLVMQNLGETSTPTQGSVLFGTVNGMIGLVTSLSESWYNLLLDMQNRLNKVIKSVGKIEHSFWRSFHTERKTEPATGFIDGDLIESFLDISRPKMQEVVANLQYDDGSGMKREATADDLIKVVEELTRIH

Sequence of CRBN-DDB1 (Q96SW2 whole entry): as the sequence (Q96SW2 whole entry) above
Sequence of CRBN-DDB1 (Q16531 whole entry partner): as the sequence (Q16531 whole entry partner) above

Structure (SMILES)	pIC50 (CRBN-DDB1)	pIC50 [1]
NCC#Cc1cccc(Oc2cccc3c2C(=O)NC(=O)C3)c1 [Compound I-244]	4.00 to 4.52	4.52 to 5.00
NCCCC#Cc1cccc(Oc2cccc3c2C(=O)NC(=O)C3)c1 [Compound I-245]	4.52 to 5.00	> 5.00
NCCCCCc1cccc(Oc2cccc3c2C(=O)NC(=O)C3)c1 [Compound I-246]	> 5.00	> 5.00
NCCCCCC#Cc1cccc(Oc2cccc3c2C(=O)NC(=O)C3)c1 [Compound I-247]	4.52 to 5.00	> 5.00
NCCCCCCCC#Cc1cccc(Oc2cccc3c2C(=O)NC(=O)C3)c1 [Compound I-248]	4.00 to 4.52	< 4.00
NCCCCCc1ccc(Oc2cccc3c2C(=O)NC(=O)C3)cc1 [Compound I-249]	4.52 to 5.00	4.52 to 5.00
NCCCCCCCc1ccc(Oc2cccc3c2C(=O)NC(=O)C3)cc1 [Compound I-250]	> 5.00	> 5.00
NCCCCCCCCCc1ccc(Oc2cccc3c2C(=O)NC(=O)C3)cc1 [Compound I-251]	> 5.00	> 5.00
CC(C)(C)OC(=O)NCCCCCCCc1ccccc1Oc1cccc2c1C(=O)NC(=O)C2=O [Compound I-252]	4.00 to 4.52	4.52 to 5.00
Cc1ccccc1Oc1cccc2c1C(=O)NC(=O)C2=O [Compound I-253]	> 5.00	4.52 to 5.00
NCCCCCc1ccccc1Oc1cccc2c1C(=O)NC(=O)C2 [Compound I-254]	4.00 to 4.52	4.52 to 5.00
NCCCCCCCCCc1ccccc1Oc1cccc2c1C(=O)NC(=O)C2 [Compound I-255]	4.52 to 5.00	4.52 to 5.00
O=C1Cc2cnn(Cc3ccccc3)c2C(=O)N1 [Compound I-257]	< 4.00	< 4.00
O=C1Cc2cccc(Cc3ccccc3)c2C(=O)N1 [Compound I-258]	4.00 to 4.52	< 4.00
O=C1Cc2cccc(Oc3ccccn3)c2C(=O)N1 [Compound I-259]	4.52 to 5.00	< 4.00
CN1C(=O)Cc2cccc(Oc3ccccc3)c2C1=O [Compound I-260]	< 4.00	< 4.00
NCCCC#Cc1ccc(Oc2cccc3c2C(=O)NC(=O)C3=O)cc1 [Compound I-264]	4.52 to 5.00	> 5.00
NCCCC#Cc1ccc(Oc2cccc3c2C(=O)NC(=O)C3)cc1 [Compound I-265]	> 5.00	> 5.00
O=C1NC(=O)c2c(Oc3cccnc3)cccc2C1=O [Compound I-266]	> 5.00	4.52 to 5.00
CC(=O)NCc1cccc(Oc2cccc3c2C(=O)NC(=O)C3=O)c1 [Compound I-267]	> 5.00	4.52 to 5.00
CC(=O)NCc1cccc(Oc2cccc3c2C(=O)NC(=O)C3)c1 [Compound I-268]	4.52 to 5.00	4.00 to 4.52
CC(C)(C)OC(=O)NCc1cccc(Oc2cccc3c2C(=O)NC(=O)C3)c1 [Compound I-273]	4.52 to 5.00	4.52 to 5.00
O=C1Cc2cccc(Oc3cccc4ccncc34)c2C(=O)N1 [Compound I-274]	4.00 to 4.52	4.00 to 4.52
O=C1Cc2cccc(Oc3cccc4ccccc34)c2C(=O)N1 [Compound I-275]	4.52 to 5.00	4.52 to 5.00
O=C1Cc2ccnc(Oc3ccccc3)c2C(=O)N1 [Compound I-276]	4.00 to 4.52	4.00 to 4.52
O=C1Cc2cccc(COc3ccccc3)c2C(=O)N1 [Compound I-277]	4.52 to 5.00	4.52 to 5.00
O=C1Cc2cccc(CNc3ccccc3)c2C(=O)N1 [Compound I-278]	4.52 to 5.00	4.52 to 5.00
Cc1cccc(CN2C[C@@H]3C(=O)NC(=O)[C@@H]3C2)n1 [Compound I-292]	< 4.00	4.52 to 5.00
O=C1NC(=O)[C@@H]2CN(Cc3ccc(-c4ccccc4)cc3)C[C@H]12 [Compound I-319]	< 4.00	4.00 to 4.52
